Patent publication US20260184700A1, “PDK1 REGULATORY COMPOUND AND COMPOSITION CONTAINING THE SAME” (PROVIBIO CO., LTD., priority 2024, published 2026)

How the values were obtained:
[1] = test system: T cells isolated from mouse spleen; test: T cell proliferation inhibition, CFSE flow cytometry, CD3/CD28 activation; format: cell-based; details: CD3/CD28 activated, 3 days
Experimental: To verify the T cell proliferation inhibitory effect of the compounds according to the present invention, the following experiment was performed based on flow cytometry analysis using carboxyfluorescein diacetate succinimidyl ester (CFSE), a fluorescent dye that binds to intracellular molecules via covalent bonds.
Spleens were extracted from 7-week-old C57BL/6 mice, ground, and then separated into single cells using a strainer (40 μm pore size, SPL). Red blood cells were removed using ACK (Ammonium-Chloride-Potassium) lysis buffer to isolate white blood cells.
Finally, using a MACS Magnetic Stand and LS column, T cells were isolated from the spleen.
The T cells isolated from the spleen were resuspended in 1 mL of free medium (RPMI-1640+200 U/mL penicillin+200 μg/mL streptomycin), and 0.3 μL of CFSE (10 mM) was added. The mixture was incubated at 37° C. for 5 minutes.
Free medium (10 mL) was added to stop the reaction, and the cells were centrifuged to obtain the cell pellet.
RPMI 1640 medium containing 10% FBS, 100 U/mL penicillin, 100 μg/mL streptomycin, and resuspended the cells. The cells were then seeded into a 96-well plate at a density of 2×10^5 cells per well and activated with CD3 and CD28 antibodies (0.5 μg/mL each) to activate T cells.
The compound diluted in DMSO was added at concentrations of 10 nM, 100 nM, 1 μM, 10 μM, 30 μM, and 50 μM, with three wells per concentration, and cultured at 37° C. and 5% CO2 for three days. The cells were then analyzed using a FACS Canto instrument.
The proliferation inhibition rate (%) was calculated using the following formula: […]

[2] = test system: HCT-116 colon cancer cell lines; test: Invasion Assay using Matrigel, HCT-116; format: cell-based, human; details: HCT-116, Matrigel invasion, 24 hours treatment
Experimental: To evaluate the metastasis inhibitory efficacy of the compounds of the present invention on HCT-116 colon cancer cell lines, an Invasion Assay using Matrigel was performed to assess the cells' invasion ability.
First, Matrigel was thawed on ice in RPMI-1640 medium without FBS, then diluted with DMEM at a ratio of 1:20.
The diluted Matrigel mixture was applied to the upper chamber at 100 μl per well, and 750 μl of RPMI-1640 without FBS was added to the lower chamber.
The plates were then incubated at 37° C. for 1 hour to allow the Matrigel to solidify.
After coating, the Matrigel mixture in the upper chamber was removed using a pipette, and the chamber was washed with RPMI without FBS.
Human-derived colorectal cancer cell line HCT-116, obtained from the Korean Cell Bank, was cultured in RPMI-1640 medium containing 10% FBS.
Following stabilization, the cells were harvested using Trypsin-EDTA treatment, centrifuged at 1,200 rpm for 3 minutes, the supernatant was removed, and the cells were resuspended in the same medium, the medium in the lower chamber was replaced with 750 μl of RPMI-1640 supplemented with 10% FBS, and the cells were seeded into the upper chamber at a density of 5×10^4 cells/well.
The cells were cultured for 24 hours after attachment, and then the compounds according to the present invention (G078, G085, G086, G088, G089, PBK-2024-010, PBK-2025-010, PBK-2025-013, PBK-2025-016) and the control substance DMSO were diluted and added to the upper chamber after removing the medium.
Additionally, the medium in the lower chamber was replaced with fresh RPMI-1640 containing FBS, and the culture was continued.
After an additional 24 hours, the medium was removed, and 1 ml of methanol was added for 10 minutes to fix the cells.
Subsequently, 1 ml of Hematoxylin was added and reacted for 5 minutes, followed by 1 ml of Eosin, which was reacted for 30 seconds. The sample was then washed with distilled water (DW).
After staining was complete, any remaining cells in the upper chamber were removed. Finally, the infiltrated cells were observed under a microscope, photographed, and the degree of infiltration was analyzed.

[3] = test system: phospho-PDK1 in SU-DHL-8 cells; test: PDK1 phosphorylation (pPDK1) by flow cytometry in SU-DHL-8 cells; format: cell-based, human; details: SU-DHL-8, 24 hours, pPDK1-PE flow cytometry, vs control group
Experimental: SU-DHL-8 cells were cultured in RPMI-1640 medium (containing 10% FBS, 100 U/mL penicillin, and 100 μg/mL streptomycin), and the cell concentration was adjusted to 1×10^6 cells/mL and seeded into a 12-well plate. After stabilizing the cells, the compound of the present invention was added, and the cells were cultured for 24 hours.
After drug treatment, the cells were harvested, and the Fc receptor blocking process was performed. The cells were then fixed and permeabilized using the Intracellular Staining Kit (Cat. No. BD554715) from BD Biosciences. Subsequently, the intracellular pPDK1 was stained using the pPDK1-PE fluorescently labeled antibody (BD Biosciences).
Referring to the figure, the vertical axis represents the phosphorylation level of PDK1 (phospho-PDK1 expression level), and the horizontal axis denotes the concentration-dependent treatment conditions of each compound.

[4] = test system: MRL/lpr mice; test: Lupus animal model (MRL/lpr mice); format: in vivo, mouse; details: 41-week-old female MRL/lpr mice; GO15F (30 mg/kg), GO48 (1 mg/kg), GO88 (0.5 mg/kg) intraperitoneally once daily
Source text: The MRL/MpJ-Faslpr/J (Hereinafter Referred to as “MRL/lpr”) used in this experiment is one of the representative animal models for systemic lupus erythematosus (SLE), known to produce various autoantibodies, including antinuclear antibodies, due to the lpr (lymphoproliferation) gene.
In this invention, the period up to 9 weeks of age was considered the pre-disease stage, and the period after 23 weeks of age was considered the post-disease stage, and efficacy verification experiments using this model were conducted.
MRL/lpr mice were imported from The Jackson Laboratory and acclimatized for one week in an SPF (Specific Pathogen Free) facility maintained at a temperature of 21-24° C., humidity of 40-60%, and a 12-hour light-dark cycle (lights on at 7:00 AM, lights off at 7:00 PM). […]
The serum separated at the time of necropsy of the lupus animal model was analyzed using the ‘IgG (Total) Mouse Uncoated ELISA Kit (Invitrogen, Cat. #88-50400)’ to measure the concentration of total IgG.
Capture antibody (anti-mouse IgG) diluted 1/250 in coating buffer was added to each well of a 96-well plate (Nunc™ MaxiSorp™ ELISA Plates, Uncoated, BioLegend, Cat. #423501) at 100 μl per well, and the plate was incubated at 4° C. for 16 hours.
To investigate the effect of GO15F administration on changes in the ratio of immune cells in the spleen of a lupus animal model, the spleens of mice administered each compound were excised, cells were extracted, and the cells were suspended in MACS buffer (autoMACS Washing Solution, Miltenyi Biotec., Cat. #130-092-987).
For flow cytometry analysis, FACS tubes (5 mL round tubes, Falcon, Cat. #352052) were used. To prevent non-specific binding of antibodies, 1 μg/mL of anti-mouse CD16/CD32 (InVivoPlus anti-mouse CD16/CD32, BioXCell, Cat. #BP0307) for 30 minutes to prevent non-specific binding of the antibody, then centrifuge at 1,500 rpm for 5 minutes and resuspend in 100 μL of MACS buffer.
For B cells, each FACS tube was stained with 1 μg/mL of FITC-conjugated anti-B220 antibody (eBioscience™, Cat. #11-0452-81) at 4° C. for 30 minutes, then washed with 2 mL of MACS buffer.
For T cells, each FACS tube was stained with 1 μg/mL PerCP-Cy5.5-conjugated anti-CD3 (Biolegend, Cat. #100218) at 4° C. for 30 minutes.
For macrophages, each FACS tube was stained with 1 μg/mL of PE-conjugated anti-CD11b antibody (Biolegend, Cat. #101207) and PerCP-Cy5.5-conjugated anti-F4/80 (Biolegend, Cat. #123128) and incubated at 4° C. for 30 minutes. The tubes were then washed with 2 mL of MACS buffer.
To investigate the effects of compound GO15F according to the present invention on systemic immune responses in a lupus animal model, gene expression analysis of cytokines in kidney tissue was performed as described in (1).
Each kidney tissue was used to isolate total RNA using TRIzol™ (Invitrozen, Cat. #15596018). RNA from each mouse was quantified at 1 μg using a micro-quantitative spectrophotometer (ThermoFisher Scientific, ND2000) and cDNA was synthesized.
The synthesized cDNA from each mouse was quantified to a concentration of 50 ng using a micro-quantitative spectrophotometer, and qPCR was performed for the cytokines ‘IL-2, IL-6, IL-10, IL-17, TNF-α, IFN-γ’ using a SYBR green probe (CFX96, BIO-RAD).
To investigate the effects of drug administration on renal tissue in MRL/lpr mice, the tissue was fixed in 10% neutral buffered formalin at room temperature, followed by stepwise ethanol penetration for dehydration. The tissue was then embedded in xylene and paraffin.
The blocked tissues were sectioned into 4 μm thick slices using a microtome, followed by deparaffinization, hydration, and staining.
Hematoxylin & Eosin staining, PAS staining, and Masson trichrome staining were performed for pathological evaluation of the tissues. […]

[5] = test system: psoriasis-induced BALB/c mice; test: Psoriasis animal model (Aldara cream, Imiquimod); format: in vivo, mouse
Experimental: To verify the therapeutic effect of the compound according to the present invention on psoriasis, a psoriasis animal model was established as follows, and the compound according to the present invention was administered to evaluate the alleviation of skin lesions and changes in immune cell patterns.
For the establishment of the psoriasis animal model, BALB/c mice (7 weeks old, female, 20 g) were purchased from HanabioTech Co., Ltd. and acclimatized to the rearing environment for one week.
Subsequently, the hair on the mouse back was shaved using a hair removal device for the first time, and then completely shaved using a depilatory cream (Nicrin Cream (80% thioglycolic acid, Il Dong Pharmaceutical)) for the second time. The mice were then kept for 24 hours to confirm the absence of skin damage.
To verify the psoriasis prevention and therapeutic effects of the compounds according to the present invention, the following experimental groups were established:
[Normal control group (Normal, Not Treatment), psoriasis-induced control group (Psoriasis, Not Treatment), psoriasis-induced vehicle control group (Psoriasis, Vehicle), experimental group (GO85, GO86, GO88, GO89, PBK-2024-010, PBK-2024-026, PBK-2025-002, PBK-2025-004, PBK-2025-016, PBK-2025-017, PBK-2025-023)]. […]
Body weights of mice in each group were measured on days 1, 4, and 8 after the start of injection and psoriasis induction. […]
To evaluate the therapeutic effect in a psoriasis-induced mouse model, the PASI (Psoriasis Area and Severity Index) score was measured.
The PASI score is based on three criteria: erythema, scaling, and skin thickness, each scored from 0 (none) to 4 (severe). […]
Observations were conducted daily at the same time, and the same observer visually assessed each criterion and recorded the scores, with the results presented in FIG. 13. […]
All samples were measured in duplicate, and the absorbance was measured at 450 nm using a microplate reader.

Molecule	Proliferation inhibition rate (%) ([1]; compound 10 nM)	Proliferation inhibition rate (%) ([1]; compound 100 nM)	Proliferation inhibition rate (%) ([1]; compound 1 μM)	Proliferation inhibition rate (%) ([1]; compound 10 μM)	Proliferation inhibition rate (%) ([1]; compound 30 μM)	Proliferation inhibition rate (%) ([1]; compound 50 μM)	number of infiltrated cells [2]	PDK1 phosphorylation (phospho-PDK1 expression level) [3]	hair growth on the facial region [4]	efficacy in improving dermatological symptoms [5]
12-(4-hydroxypiperazin-1-yl)dodecyl-N-(6-aminopurazin-2-yl)carboxamide [Compound 10]	100.00	100.00	100.00	100.00	100.00	100.00	reduction in the number of infiltrated cells	–	–	–
Nc1ncccc1C(=O)NCCCCCCCCCCCCN1CCOCC1 [Compound 2, 2-Amino-N-(12-morpholin-4-yl-dodecyl)-nicotinamide]	–	–	–	–	–	–	–	stronger PDK1 inhibition	hair growth was confirmed	–
Nc1nc(NC(=O)CCCCCCCCCCCCN2CCN(CCO)CC2)nc2nc[nH]c12 [Compound 15, 12-[4-(2-hydroxyethyl)piperazin-1-yl]dodecyl-N-(6-aminopurine-2-yl)carboxamide]	–	–	–	–	–	–	reduction in the number of infiltrated cells	–	–	excellent efficacy in improving dermatological symptoms
